# Results: patent publication US20220378763A1, “COMPOUND FOR TREATMENT OF ACUTE INFLAMMATION IN THE MYOCARDIUM” (CALPROTECT AB, priority 2019, published 2022)
# Columns and labels:
# [1] = tested on: C57BL/6 mice reconstituted with Nur77-EGFP bone marrow, with MI; assay: Nur77 expression by flow cytometry in Nur77-EGFP bone marrow chimeras, day 7 post-MI; type: in vivo, mouse; details: 7 days treatment
# Procedure: Eight-week-old C57BL/6NRJ female mice were lethally irradiated with a total dose of 910 cGy. One day after irradiation, 1×10^6 total bone marrow cells harvested from donor C57BL/6-Tg(Nr4a1-EGFP/cre)820Khog/J (Nur77-EGFP) mouse and re-suspended in PBS were administered to each recipient mouse via the tail vein. Recipient mice were treated with neomycin in drinking water (2 g/L) for two weeks. Blood samples were collected from all the recipient mice at four weeks after bone marrow transfer, to confirm the success of bone marrow reconstitution by flow cytometry. The mice were used for experiments 6 weeks after bone marrow transfer (FIG. 4S).
# In order to investigate the underlying molecular mechanisms involved in the […] of myocardial repair by S100A9 blockade, we induced MI in C57Bl/6 mice transplanted with Nur77-EGFP transgenic bone marrow expressing the fluorescent EGFP protein under the Nur77 promoter (FIG. 4S). The expression of Nur77 was measured by flow cytometry in blood monocytes and heart macrophages harvested on day 7 post-MI from mice receiving 7 days ABR-238901 treatment or PBS. […] Nur77 levels were unaffected in the fully-differentiated Ly6C^lo monocytes and Ly6C^loMerTK^hi macrophages (FIG. 4t; FIG. 11b). Further, we studied the influence of S100A9 on Nur77 expression and activity in monocytes and macrophages in-vitro, and the ability of ABR-238901 to inhibit these effects. Stimulation with recombinant extracellular S100A9 for 24 h increased Nur77 expression in bone marrow-derived C57BL/6 monocytes (FIG. 4U). […] Both of these effects were inhibited by ABR-238901 (FIG. 4U-V).
# [2] = tested on: C57BL/6 mice with permanent coronary artery ligation; assay: MI by permanent coronary artery ligation, long-term (21 days) treatment: echocardiography and scar size; type: in vivo, mouse; details: treatment for 21 days
# Procedure: Ultrasound measurements were performed at day −1 (baseline), 7, and 21 to assess cardiac function using a Vevo 770 echocardiographic imaging system with a 707B probe (VisualSonics, Toronto, Canada). In selected experiments, additional assessment was performed on days 3 and 14. The mice were anesthetized using 1-3% isoflurane and hair was carefully removed using depilatory cream. To maintain body temperature, the mice were placed in supine position on a heated surface (37° C.). Two-dimensional M-mode images were recorded in the parasternal short-axis view at the mid-papillary level. Five complete cardiac cycles were traced to calculate fractional shortening, ejection fraction, left ventricular systolic volume, and left ventricular diastolic volume by using the VisualSonics software.
# At 21 days after MI, the hearts were perfused with ice cold PBS and excised under ketamine/xylazine anesthesia. Subsequently the hearts were fixed in 4% (w/v) paraformaldehyde and embedded in paraffin. The hearts were sectioned transversely from the apex to the level of the suture, and 6 μm thick sections were collected at 390 μm intervals. The sections were mounted on glass slides and stained with Van Gieson or Masson trichrome stain for quantitative analysis of scar size. Alarmin S100A8/A9 was detected using mouse anti-S100A8/A9 IgG1 antibody (Abcam, ab 130234, 1:100 dilution, O/N 4° C.). Goat anti-mouse IgG1 HRP-conjugated secondary antibody (Abcam, ab 97240, 1 h RT) was used and the staining was developed with ImmPACT™ DAB (Vector, SK-4105) chromogen as substrate. The slides were subsequently scanned using an Aperio digital pathology slide scanner (Leica Biosystems), and images were captured with the ImageScope software (Leica Biosystems). Left ventricle area and the infarcted area were measured on each section by using the BioPix iQ 2.5.0 software (Biopix AB). The size of the post-MI myocardial scar was expressed as percentage of the left ventricle volume below the coronary ligature.
# MI induction and other procedures were carried out as outlined in Example 2. For long-term experiments of up to 21 days, a daily dose of 30 mg/Kg ABR-238901 was diluted in PBS and administered by daily i.p. injections for the first 3 days post-MI until the mice recovered and started to drink normally, and thereafter p.o. ad-libitum in meglumine buffer (FIG. 4A). Adequate treatment dosage was ensured by closely monitoring daily fluid intake.
compound,measurement,setting,value
"COc1ncc(S(=O)(=O)Nc2cncc(Cl)c2O)cc1Br [ABR-238901, 5-bromo-N-(5-chloro-4-hydroxypyridin-3-yl)-6-methoxypyridine-3-sulfonamide]",Intracellular Nur77 levels in blood Ly6Chi/int monocytes,[1],lower
same,Numbers of reparatory Ly6CloMerTKhi macrophages in the myocardium,[1],reduced
same,Nur77 levels in Ly6Clo monocytes,[1],unaffected
same,Nur77 levels in Ly6CloMerTKhi macrophages,[1],unaffected
same,Cardiac function (left ventricular ejection fraction),"[2]; 30 mg/Kg i.p. 3 days then p.o., echocardiography",progressive deterioration
same,Size of the myocardial scar,[2]; 21 days,increased
same,EDV vs controls,[2]; day 21,increased
same,ESV vs controls,[2]; day 21,increased
